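Test compounds were applied to cells in 96-well plates for 48 hours at 5 doses. At the GI50, growth is halved. TGI: concentration producing complete growth inhibition.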
Experiments:
Assay in all cases: DTP human tumour cell line panel, 48 h
[1] = system: A549 NSCLC
[2] = system: ACHN renal
[3] = system: BT-549 breast
[4] = system: CAKI-1 renal
[5] = system: EKVX NSCLC
[6] = system: NCI-H522 lung
[7] = system: SF-295 CNS
[8] = system: SK-MEL-2 melanoma
[9] = system: SNB-19 CNS
[10] = system: UACC-257 melanoma

## Cc1cccc2nc3cccc(C(=O)NCCC[N+](C)(CCCNC(=O)c4cccc5nc6cccc(C)c6nc45)Cc4c([N+](=O)[O-])ncn4C)c3nc12
[1]
  GI50: 8.19 µM
  TGI: > 1100 µM
[2]
  GI50: 3.59 µM
  TGI: > 1100 µM
[3]
  TGI: > 1100 µM
[4]
  GI50: 107 µM
  TGI: > 1100 µM
[5]
  GI50: 443 µM
  TGI: > 1100 µM
[6]
  GI50: 16.2 µM
  TGI: > 1100 µM
[7]
  GI50: 25 µM
  TGI: > 1100 µM
[8]
  GI50: 260 µM
  TGI: > 1100 µM
[9]
  TGI: > 1100 µM
[10]
  GI50: 63 µM
  TGI: > 1100 µM

## CC(NC(=O)OCc1ccccc1)NC(=O)C(CC(=O)OC(C)(C)C)NC(=O)OC(C)(C)C (stereo not drawn)
[1]
  TGI: > 100 µM
[2]
  TGI: > 100 µM
[3]
  TGI: > 100 µM
[4]
  TGI: > 100 µM
[5]
  TGI: > 100 µM
[6]
  TGI: > 100 µM
[7]
  TGI: > 100 µM
[8]
  TGI: > 100 µM
[9]
  TGI: > 100 µM
[10]
  TGI: > 100 µM

## O=c1c2ccccc2n2nnc3ccc(NCCCNCCNCCCNc4ccc5nnn6c7ccccc7c(=O)c4c56)c1c32
[1]
  TGI: 20.8 µM
[2]
  TGI: > 18 µM
[3]
  TGI: 18.9 µM
[4]
  TGI: 12.8 µM
[5]
  TGI: 20.3 µM
[6]
  TGI: 9.84 µM
[7]
  TGI: > 27.5 µM
[8]
  TGI: > 50 µM
[9]
  TGI: 35.3 µM
[10]
  TGI: > 50 µM

## Cc1nccn1S(=O)(=O)c1ccc(Br)cc1Br
[1]
  TGI: > 100 µM
[2]
  TGI: > 100 µM
[3]
  TGI: > 100 µM
[4]
  TGI: > 100 µM
[5]
  TGI: 96.8 µM
[6]
  TGI: 86.9 µM
[7]
  TGI: 93.1 µM
[8]
  TGI: 55 µM
[9]
  TGI: 90.3 µM
[10]
  TGI: > 100 µM

## C1#Cc2ccccc2OCCOc2ccccc2C#Cc2ccccc2OCCOc2ccccc21
[1]
  TGI: > 100 µM
[2]
  TGI: 37.9 µM
[3]
  TGI: 81.9 µM
[4]
  TGI: 40.7 µM
[5]
  TGI: 98.9 µM
[6]
  TGI: 49.8 µM
[7]
  TGI: > 100 µM
[8]
  TGI: > 100 µM
[9]
  TGI: > 100 µM
[10]
  TGI: > 100 µM

## Cn1c(-c2ccc[se]2)ccc1-c1ccc(CO)[se]1
[1]
  TGI: > 100 µM
[2]
  TGI: > 71.5 µM
[3]
  TGI: > 100 µM
[4]
  TGI: < 0.0332 µM
[5]
  TGI: > 100 µM
[6]
  TGI: > 100 µM
[7]
  TGI: > 100 µM
[8]
  TGI: > 100 µM
[9]
  TGI: > 100 µM
[10]
  TGI: 0.102 µM

## COc1ccc(/C=C2\CC3C4CC=C5C[C@@H](O)CC[C@]5(C)C4CC[C@]3(C)\C2=N\O)cc1OC (stereo partly drawn)
[1]
  TGI: > 100 µM
[2]
  TGI: 36.9 µM
[3]
  TGI: > 100 µM
[4]
  TGI: > 100 µM
[5]
  TGI: > 100 µM
[6]
  TGI: > 100 µM
[7]
  TGI: 80.9 µM
[8]
  TGI: 42.3 µM
[9]
  TGI: > 100 µM
[10]
  TGI: > 100 µM

## N#Cc1c(N2CCCC2)ncn(Cc2ccccc2)c1=S
[1]
  TGI: > 100 µM
[2]
  TGI: > 100 µM
[3]
  TGI: > 100 µM
[4]
  TGI: > 100 µM
[5]
  TGI: > 100 µM
[6]
  TGI: > 100 µM
[7]
  TGI: > 100 µM
[8]
  TGI: > 100 µM
[9]
  TGI: > 100 µM
[10]
  TGI: > 100 µM

Reference: PubChem BioAssay (NCI)
